Like-named read-outs stand apart in the source and are kept apart here.
Key:
Legionella [1] = test system: Legionella
Legionella [2] = test system: Legionella; remark: listed apart in the source

| Substance | effect on Legionella at low concentration (Legionella [1]) | growth of Legionella (Legionella [1]) | effect on Legionella at low concentration (Legionella [2]) | growth of Legionella (Legionella [2]) | decrease of the number of bacteria (Legionella [1]) |
| --- | --- | --- | --- | --- | --- |
| ammonium iron (II) sulfate hexahydrate | a sufficient effect was obtained | greatly suppressed | – | – | – |
| ammonium iron (III) sulfate dodecahydrate | a sufficient effect was obtained | greatly suppressed | – | – | – |
| iron (II) sulfate heptahydrate | the effect was observed | greatly suppressed | an effect was obtained | greatly suppressed | at least 3 orders of magnitude |
| iron (III) chloride hexahydrate | – | – | an effect was obtained | greatly suppressed | – |

Reference: patent publication US20210061684A1 (HIYOSHI CORPORATION, priority 2018, published 2021)
